pIC50: −log10 of the molar value.
Legend:
Assay type in all cases: cell-based
MOLT-4 cells = assay: MOLT-4 cell viability, MTT assay; conditions: Homo sapiens, MOLT-4, 48 h
In short: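 MOLT-4 cells in RPMI 1640 with 10% FBS were exposed to compounds for 48 h at 9 concentrations (3.16-fold dilutions, triplicates). After 4 h with MTT and overnight SDS/HCl solubilisation, absorbance was read at 540 nm. IC50 came from four-parameter fits versus control, as the mean of ≥2 independent experiments.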

Bcl-xL = biological target: T1, Bcl-xL (Homo sapiens, UniProt Q07817); assay: HCT116 Bcl-xL degradation, capillary-based immunoassay (WES); conditions: for DC50: HCT116, 24 h, 9-point serial dilution; for remaining activity at 0.01 µM / remaining activity at 0.1 µM: HCT-116, 24 h, % of untreated cells; for remaining activity at 0.01 µM: HCT116, 10 nM; for remaining activity at 0.1 µM: HCT116, 100 nM
T1 construct: Measured levels of Bcl-xL protein of HCT116 cells treated with the tested compounds; host or cells: HCT116
T1 sequence (Q07817 whole entry): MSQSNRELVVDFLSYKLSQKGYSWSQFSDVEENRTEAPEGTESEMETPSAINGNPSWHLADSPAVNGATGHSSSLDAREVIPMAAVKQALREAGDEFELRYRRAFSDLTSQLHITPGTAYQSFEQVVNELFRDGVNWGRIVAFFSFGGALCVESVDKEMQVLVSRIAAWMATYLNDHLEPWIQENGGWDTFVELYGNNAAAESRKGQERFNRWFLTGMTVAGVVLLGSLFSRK
In short: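 Bcl-xL protein level by capillary WES immunoassay in HCT116 lysates, as % of untreated after cofilin normalization. Compound exposure was 24 h at 10 and 100 nM and/or a 9-point series, in quadruplicate. Four-parameter fitting gave the DC50.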

COR-L105 = assay: CellTiter-Glo proliferation assay, COR-L105; conditions: COR-L105, 5 days
In short: (§1)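 Both lines grown in RPMI-1640 + 10% FBS. COR-L105 plated flat at 1,000 cells/well overnight; NCI-H1650 grown as spheroids, 3,000 cells/well, 72 h. Compounds at 0.508 nM-10 μM final for 5 days, 37° C. ATP read by CellTiter-Glo (3D version for spheroids); IC50 from variable-slope fit normalized to untreated cells.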

NCI-H1650 = assay: CellTiter-Glo 3D proliferation assay, NCI-H1650 spheroids; conditions: 5 days
In short: as §1

## Cc1ncsc1-c1ccc([C@H](C)NC(=O)[C@@H]2C[C@@H](O)CN2C(=O)[C@@H](NC(=O)CCCCCCCCCCCCCCCN(C)CCOC23CC4(C)CC(C)(CC(Cn5ncc(-c6ccc(N7CCCc8c7nnc(Nc7nc9ccccc9s7)c8C)nc6C(=O)O)c5C)(C4)C2)C3)C(C)(C)C)cc1 [Example 1, 6-[3-(1,3-benzothiazol-2-ylamino)-4-methyl-6,7-dihydro-5H-pyrido[2,3-c]pyridazin-8-yl]-3-[1-[[3-[2-[[16-[[(1S)-1-[(2S,4R)-4-hydroxy-2-[[(1S)-1-[4-(4-methylthiazol-5-yl)phenyl]ethyl]carbamoyl]pyrrolidine-1-carbonyl]-2,2-dimethyl-propyl]amino]-16-oxo-hexadecyl]-methyl-amino]ethoxy]-5,7-dimethyl-1-adamantyl]methyl]-5-methyl-pyrazol-4-yl]pyridine-2-carboxylic acid]
MOLT-4 cells
  pIC50: 9.20
Bcl-xL
  DC50: 0.329 nM
  remaining activity at 0.01 µM: 21%
  remaining activity at 0.1 µM: 9%

## Cc1ncsc1-c1ccc(CNC(=O)[C@@H]2CC(O)CN2C(=O)C(NC(=O)CCCCCCC(=O)N2CCN(CCOC34CC5(C)CC(C)(CC(Cn6ncc(-c7ccc(N8CCCc9c8nnc(Nc8nc%10ccccc%10s8)c9C)nc7C(=O)O)c6C)(C5)C3)C4)CC2)C(C)(C)C)cc1 (stereo in doubt) [Example 24, 6-[3-(1,3-benzothiazol-2-ylamino)-4-methyl-6,7-dihydro-5H-pyrido[2,3-c]pyridazin-8-yl]-3-[1-[[3-[2-[4-[8-[[(1S)-1-[(2S,4R)-4-hydroxy-2-[[4-(4-methylthiazol-5-yl)phenyl]methylcarbamoyl]pyrrolidine-1-carbonyl]-2,2-dimethyl-propyl]amino]-8-oxo-octanoyl]piperazin-1-yl]ethoxy]-5,7-dimethyl-1-adamantyl]methyl]-5-methyl-pyrazol-4-yl]pyridine-2-carboxylic acid]
COR-L105
  pIC50: 6.46
COR-L105; Homo sapiens, COR-L105, 120 h
  pIC50: 6.30
COR-L105; Homo sapiens, COR-L105, 120 h, read-out: COR-L105 Span (max)
  Emax: 104%
NCI-H1650
  pIC50: 7.03
NCI-H1650; Homo sapiens, NCI-H1650, 120 h
  pIC50: 7.02
NCI-H1650; Homo sapiens, NCI-H1650, 120 h, read-out: NCI-H1650 Span (Amax)
  Emax: 89.1%
MOLT-4 cells
  pIC50: 8.58
Bcl-xL
  DC50: > 316 nM
  remaining activity at 0.01 µM: 75%
  remaining activity at 0.1 µM: 44%

## Cc1ncsc1-c1ccc([C@H](C)NC(=O)[C@@H]2C[C@@H](O)CN2C(=O)[C@@H](NC(=O)CCCCCCCN(C)CCOC23CC4(C)CC(C)(CC(Cn5ncc(-c6ccc(N7CCCc8c7nnc(Nc7nc9ccccc9s7)c8C)nc6C(=O)O)c5C)(C4)C2)C3)C(C)(C)C)cc1 [Example 6, 6-[3-(1,3-benzothiazol-2-ylamino)-4-methyl-6,7-dihydro-5H-pyrido[2,3-c]pyridazin-8-yl]-3-[1-[[3-[2-[[8-[[(1S)-1-[(2S,4R)-4-hydroxy-2-[[(1S)-1-[4-(4-methylthiazol-5-yl)phenyl]ethyl]carbamoyl]pyrrolidine-1-carbonyl]-2,2-dimethyl-propyl]amino]-8-oxo-octyl]-methyl-amino]ethoxy]-5,7-dimethyl-1-adamantyl]methyl]-5-methyl-pyrazol-4-yl]pyridine-2-carboxylic acid]
MOLT-4 cells
  pIC50: 8.18
Bcl-xL
  DC50: 2.94 nM
  remaining activity at 0.01 µM: 69%
  remaining activity at 0.1 µM: 22%

## Cc1ncsc1-c1ccc([C@H](C)NC(=O)[C@@H]2C[C@@H](O)CN2C(=O)[C@@H](NC(=O)CCCCCCCCN(C)CCOC23CC4(C)CC(C)(CC(Cn5ncc(-c6ccc(N7CCCc8c7nnc(Nc7nc9ccccc9s7)c8C)nc6C(=O)O)c5C)(C4)C2)C3)C(C)(C)C)cc1 [Example 5, 6-[3-(1,3-benzothiazol-2-ylamino)-4-methyl-6,7-dihydro-5H-pyrido[2,3-c]pyridazin-8-yl]-3-[1-[[3-[2-[[9-[[(1S)-1-[(2S,4R)-4-hydroxy-2-[[(1S)-1-[4-(4-methylthiazol-5-yl)phenyl]ethyl]carbamoyl]pyrrolidine-1-carbonyl]-2,2-dimethyl-propyl]amino]-9-oxo-nonyl]-methyl-amino]ethoxy]-5,7-dimethyl-1-adamantyl]methyl]-5-methyl-pyrazol-4-yl]pyridine-2-carboxylic acid]
MOLT-4 cells
  pIC50: 8.45
Bcl-xL
  DC50: 2.45 nM
  remaining activity at 0.01 µM: 54%
  remaining activity at 0.1 µM: 19%

## Cc1ncsc1-c1ccc(CNC(=O)C2C[C@@H](O)CN2C(=O)C(NC(=O)CCCCCC(=O)N2CCN(CC#Cc3ccc(OCCCc4sc(N5CCCc6c5nnc(Nc5nc7ccccc7s5)c6C)nc4C(=O)O)c(F)c3)CC2)C(C)(C)C)cc1 (stereo in doubt) [Example 15, 2-[3-(1,3-benzothiazol-2-ylamino)-4-methyl-6,7-dihydro-5H-pyrido[2,3-c]pyridazin-8-yl]-5-[3-[2-fluoro-4-[3-[4-[7-[[(1S)-1-[(2S,4R)-4-hydroxy-2-[[4-(4-methylthiazol-5-yl)phenyl]methylcarbamoyl]pyrrolidine-1-carbonyl]-2,2-dimethyl-propyl]amino]-7-oxo-heptanoyl]piperazin-1-yl]prop-1-ynyl]phenoxy]propyl] thiazole-4-carboxylic acid]
MOLT-4 cells
  pIC50: 8.25
Bcl-xL
  DC50: 0.462 nM
  remaining activity at 0.01 µM: 39%
  remaining activity at 0.1 µM: 23%

## Cc1ncsc1-c1ccc([C@H](C)NC(=O)C2CC(O)CN2C(=O)C(NC(=O)CCCCCCCCCCCN2CCN(CC#Cc3ccc(OCCCc4sc(N5CCCc6c5nnc(Nc5nc7ccccc7s5)c6C)nc4C(=O)O)c(F)c3)CC2)C(C)(C)C)cc1 (stereo in doubt) [Example 31, 2-[3-(1,3-benzothiazol-2-ylamino)-4-methyl-6,7-dihydro-5H-pyrido[2,3-c]pyridazin-8-yl]-5-[3-[2-fluoro-4-[3-[4-[12-[[(1S)-1-[(2S,4R)-4-hydroxy-2-[[(1S)-1-[4-(4-methylthiazol-5-yl)phenyl]ethyl]carbamoyl]pyrrolidine-1-carbonyl]-2,2-dimethyl-propyl]amino]-12-oxo-dodecyl]piperazin-1-yl]prop-1-ynyl]phenoxy]propyl] thiazole-4-carboxylic acid]
MOLT-4 cells
  pIC50: 8.09
Bcl-xL
  DC50: 1.22 nM
  remaining activity at 0.01 µM: 11%
  remaining activity at 0.1 µM: 6%
